# Source: patent US20190290623A1, “USE OF TIOTROPIUM BROMIDE TO PREVENT PULMONARY OXYGEN TOXICITY” (priority 2018, published 2019)
# “Also recorded” adds a separate entry of the source.
# Tests used:
# [1] = system: swine exposed to 2.5 ATA hyperbaric oxygen for 5.5 hr; assay: Experiment 2 deep exposure simulation: pulmonary compliance; format: in vivo
# Description: Experiment 2 is designed to evaluate the efficacy of tiotropium bromide pre-dive with respect to reducing decrements in pulmonary function due to PO2T following a 5.5 hour, 2.5 ATA hyperbaric oxygen exposure. This dive profile was selected because it caused the most significant pulmonary function deficits in humans with minimal risk of seizure due to CNS oxygen toxicity.
# Pulmonary function testing: The swine had disposable prewired electrodes adhered to the dermis over the gluteal muscle and a train of four (TOF) stimulation was initiated to confirm proper placement and twitch using a DigiStim III Peripheral Nerve Stimulator (Neuro Technology Inc., Kerrville, Tex.). Atracurium besylate (50 mg, IV) (hospira, Lake Forest, Ill.) was injected into the ear vein catheter, and the swine was observed until cessation of muscle twitch with TOFs. The swine was then disconnected from the ventilator circuit, allowed to passively exhale, and connected to an O2 filled 3 L super syringe (Hamilton Company, Reno, Nev.) attached to a pressure gauge (OMEGA®, Norwalk, Conn.), and pneumotachometer (Harvard Apparatus, Holliston, Mass.). Oxygen was introduced in 100 ml increments every 3 seconds until a static pressure of 40 cm H2O was reached. The lungs were then deflated in 100 ml increments until a static pressure of −40 cm H2O. The swine was then reconnected to the ventilator and ventilated for 2 minutes before repeating the insufflation and exhalation maneuvers and measurements one more time. […] After the above measurements, swine received either nebulized Tiotropium (18 μg dissolved in saline) or an equal volume of 0.9% saline through the breathing circuit over the course of 15 minutes. The propofol infusion was then stopped, the animals were then monitored until a swallow reflex was observed then extubated. The swine were then transported to the hyperbaric chamber suite and allowed to recover until capable of standing.
# Hyperbaric Exposures: Individual animals were then placed into a Plexiglas box (30 in.×42 in.×38 in., manufactured in-house) within a Multiple Large Animal Chamber (MLAC), which is a steel-hulled hyperbaric chamber (450-cubic ft. floodable volume and pressure tested to 1,230 feet of seawater [fsw] equivalent) (Bethlehem Steel Corp, Bethlehem Pa.). Pressure/depth was monitored by a CPG 2500 Digital Pressure Gauge (Mensor Corp., San Marcos, Tex.). Swine were dove in pairs with each treatment group represented. Swine box assignment was alternated with respect to treatment to avoid any effects associated with individual box environmental features. Animals were monitored via closed-circuit television to observe signs of distress related to middle ear barotrauma (e.g. head shaking, nystagmus) and seizure activity. Oxygen concentration was measured and recorded using a portable O2 analyzer (Teledyne Analytical Inst, City of Industry, Calif.). After positioning the animal inside the Plexiglas box, the MLAC was sealed and pressurized using air at the rate of I ATA/minute to a depth of 2.5 ATA. After 2.5 min at a bottom depth equivalent to 2.5 ATA, the breathing gas was switched to 100% O2 and maintained for 5.5 Hrs. After completing 5.5 Hrs on 100% O2, the inspired gas was switched back to air for 3 min. Then, the chamber was decompressed at 1 ATA/minute. Upon reaching surface the animal was transported to the surgical suite for post-dive ECG and pulmonary function measurements (identical to the pre-dive procedures). […]
# [2] = system: swine exposed to 2.5 ATA hyperbaric oxygen for 5.5 hr; assay: Experiment 2: lung wet-dry ratio; format: in vivo; settings: 2.5 ATA O2 5.5 hr; n=13; mean ± SEM; p=0.4566 vs saline
# Excerpt: Lungs were collected from the swine during necropsy. The right lung was collected for measurement of wet-dry ratios. The left lung was fixed via tracheal instillation at a standard pressure of 25 cmH2O with 10% neutral buffered formalin (NBF). The lungs were then sectioned into ten, one centimeter (cm) cranial to caudal serial sections. Three, 1 cm blocks were cut from each section and post-fixed in 10% NBF, trimmed, embedded in paraffin and cut into 5 μm sections for histological staining. Histology slides were de-paraffinized and stained with hematoxylin and eosin. A board-certified veterinary pathologist blinded to group randomization reviewed all gross necropsies, images, and histology slides.
# All data were compiled into Excel spreadsheets then imported into Graphpad Prism 7.02 for statistical analysis. […] To allow for accurate data comparison between animals and/or groups the pressure volume curves were separated into inspiratory arms (0 to 40 cm H2O) and expiratory arms (40 to −40 cm H2O). Each arm was then fit using a non-linear regression utilizing a Gaussian distribution model. Volume data was then extrapolated from the curve corresponding to pressures from 0 to 40 cmH2O at 2.5 cm H2O increments. Statistical group-wise comparison of the extrapolated inspiratory and expiratory arms were conducted using repeated measures two-way ANOVA. […]
smiles,measurement,setting,value
"C[N+]1(C)[C@@H]2C[C@@H](OC(=O)C(O)(c3cccs3)c3cccs3)C[C@H]1[C@@H]1O[C@@H]12 [Tiotropium, tiotropium bromide]","pulmonary compliance, inspiratory arm, post-exposure vs baseline","[1]; 2.5 ATA O2 5.5 hr, 1st set of measurements, n=7, p=0.1999",no significant difference
same,"expiratory compliance, post-exposure vs baseline","[1]; 2.5 ATA O2 5.5 hr, 1st set of measurements, n=7, p=0.5711",did not exhibit any decrement
same,"pulmonary compliance, expiratory arm, post-exposure vs baseline","[1]; 2.5 ATA O2 5.5 hr, 2nd set of measurements, n=9, p=0.0438",significant decrement
same,"pulmonary compliance, inspiratory arm, post-exposure vs baseline","[1]; 2.5 ATA O2 5.5 hr, 2nd set of measurements, n=9, p=0.7388",no significant change
same,pulmonary compliance after hyperbaric oxygen exposure,"[1]; 2.5 ATA for 5.5 hrs, 18 μg inhaled, nebulized, prophylactic, p=0.9094",no decrement in pulmonary compliance; also recorded: no change
same,Wet-Dry ratios of lung,[2],6.067±0.2305
